PMC8016998, “Identification of potential therapeutic antimicrobial peptides against Acinetobacter baumannii in a mouse model of pneumonia” (Scientific Reports, 2021)
Like-named read-outs stand apart in the source and are kept apart here. Values belong to the sequence of their own block, whether it stands above or below them. No end group written: not given here.

Key:
[1] = system: Acinetobacter baumannii 17,978; format: cell-based;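 note: CLSI broth microdilution in 96-well polypropylene plates, MBC taken as lowest concentration giving no growth when clear wells were subcultured on LB agar for 24 h at 37 °C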
Protocol: (§2) MBC were determined by extending the MIC procedure in sterilized 96-well polypropylene microtiter plates according to the broth microdilution guidelines of the Clinical and Laboratory Standards Institute with some modification[47]. […] In addition, 10 µL was drawn from each well with no visible turbidity onto LB agar plates and incubated for 24 h at 37 °C. The lowest concentration showing no visible growth on agar subculture was used as the MBC value. All experiments were performed in triplicate.

[2] = system: Acinetobacter baumannii 19,606; format: cell-based
[3] = system: MDRAB clinical strain J49; format: cell-based, Acinetobacter baumannii
Protocol: as §2

MDRAB clinical strain K2 = format: cell-based, Acinetobacter baumannii
Protocol: as §2

[4] = system: MDRAB clinical strain Y92; format: cell-based, Acinetobacter baumannii
Protocol: as §2

[5] = system: MDRAB clinical strain W11; format: cell-based, Acinetobacter baumannii
[6] = system: MDRAB clinical strain U80; format: cell-based, Acinetobacter baumannii
[7] = system: MDRAB clinical strain U95; format: cell-based, Acinetobacter baumannii
[8] = system: MDRAB clinical strain O59; format: cell-based, Acinetobacter baumannii
Protocol: as §2

[9] = system: MDRAB clinical strain D29; format: cell-based, Acinetobacter baumannii
Protocol: as §2

[10] = system: MDRAB clinical strain L87; format: cell-based, Acinetobacter baumannii
[11] = system: MDRAB clinical strain AO80; format: cell-based, Acinetobacter baumannii
Protocol: as §2

[12] = system: MDRAB clinical strain AS40; format: cell-based, Acinetobacter baumannii
Protocol: as §2

[13] = system: MDRAB clinical strain AK29; format: cell-based, Acinetobacter baumannii
Protocol: as §2

[14] = system: MDRAB clinical strain AK61; format: cell-based, Acinetobacter baumannii
Protocol: as §2

[15] = system: MDRAB clinical strain AE5; format: cell-based, Acinetobacter baumannii
[16] = system: MDRAB clinical strain AE6; format: cell-based, Acinetobacter baumannii
Protocol: as §2

[17] = system: MDRAB clinical strain AF11; format: cell-based, Acinetobacter baumannii
[18] = system: MDRAB clinical strain AF12; format: cell-based, Acinetobacter baumannii
Protocol: as §2

[19] = system: MDRAB clinical strain AF93; format: cell-based, Acinetobacter baumannii
[20] = system: MDRAB clinical strain AG51; format: cell-based, Acinetobacter baumannii
Protocol: as §2

[21] = system: MDRAB clinical strain AN10; format: cell-based, Acinetobacter baumannii
Protocol: as §2

[22] = system: MDRAB clinical strain AL87; format: cell-based, Acinetobacter baumannii
[23] = system: MDRAB clinical strain AZ93; format: cell-based, Acinetobacter baumannii
MDRAB strain BF50 = format: cell-based, Acinetobacter baumannii; details: 24 h
Protocol: (§1) All AMPs and TP4 derivatives used in this study were synthesized by Kelowna International Scientific Inc. (Taipei City, Taiwan) with more than 95% purity, and their molecular weights were verified by mass spectrum analysis. MBC were determined by extending the MIC procedure in sterilized 96-well polypropylene microtiter plates according to the broth microdilution guidelines of the Clinical and Laboratory Standards Institute with some modification. Briefly, 5 × 10^5 CFU/mL of bacteria were inoculated in LB medium containing AMPs or antibiotic at final concentrations ranging from 512 to 1 μg/mL (from serial twofold dilutions). After incubation for 24 h at 37 °C, the lowest concentration showing no visible growth was used as the MIC value. In addition, 10 µL was drawn from each well with no visible turbidity onto LB agar plates and incubated for 24 h at 37 °C. The lowest concentration showing no visible growth on agar subculture was used as the MBC value. All experiments were performed in triplicate.

MDRAB strain MO91 = format: cell-based, Acinetobacter baumannii; details: 24 h
Protocol: as §1

[24] = 10 µL from wells without turbidity onto LB agar, 24 h at 37 °C, triplicate

MIC ([1]; 17,978, 24 h): 16 µg/mL | MIC ([2]; 19,606, 24 h): 16 µg/mL | MIC ([3]; 24 h): 16 µg/mL | MIC (MDRAB clinical strain K2; 24 h): 16 µg/mL | MIC ([4]; 24 h): 16 µg/mL | MIC ([5]; 24 h): 16 µg/mL | MIC ([6]; 24 h): 32 µg/mL | MIC ([7]; 24 h): 32 µg/mL | MIC ([8]; 24 h): 32 µg/mL | MIC ([9]; 24 h): 32 µg/mL | MIC ([10]; 24 h): 32 µg/mL | MIC ([11]; 24 h): 32 µg/mL | MIC ([12]; 24 h): 32 µg/mL | MIC ([13]; 24 h): 16 µg/mL | MIC ([14]; 24 h): 32 µg/mL | MIC ([15]; 24 h): 16 µg/mL | MIC ([16]; 24 h): 16 µg/mL | MIC ([17]; 24 h): 16 µg/mL | MIC ([18]; 24 h): 16 µg/mL | MIC ([19]; 24 h): 16 µg/mL | MIC ([20]; 24 h): 8 µg/mL | MIC ([21]; 24 h): 8 µg/mL | MIC ([22]; 24 h): 16 µg/mL | MIC ([23]; 24 h): 16 µg/mL | MIC (MDRAB strain BF50): 16 µg/mL | MIC (MDRAB strain MO91): 16 µg/mL
Sequence: FIHHIIGGLFSAGKAIHRLIRRRRR [TP4]
MBC ([1]; 17,978, 24 h): 16 µg/mL | MBC ([2]; 19,606, 24 h): 16 µg/mL | MBC ([3]; 24 h): 16 µg/mL | MBC (MDRAB clinical strain K2; 24 h): 32 µg/mL | MBC ([4]; 24 h): 16 µg/mL | MBC ([5]; 24 h): 16 µg/mL | MBC ([6]; 24 h): 32 µg/mL | MBC ([7]; 24 h): 64 µg/mL | MBC ([8]; 24 h): 32 µg/mL | MBC ([9]; 24 h): 32 µg/mL | MBC ([10]; 24 h): 32 µg/mL | MBC ([11]; 24 h): 32 µg/mL | MBC ([12]; 24 h): 32 µg/mL | MBC ([13]; 24 h): 16 µg/mL | MBC ([14]; 24 h): 32 µg/mL | MBC ([15]; 24 h): 32 µg/mL | MBC ([16]; 24 h): 16 µg/mL | MBC ([17]; 24 h): 16 µg/mL | MBC ([18]; 24 h): 16 µg/mL | MBC ([19]; 24 h): 16 µg/mL | MBC ([20]; 24 h): 16 µg/mL | MBC ([21]; 24 h): 8 µg/mL | MBC ([22]; 24 h): 16 µg/mL | MBC ([23]; 24 h): 16 µg/mL | MBC (MDRAB strain BF50): 16 µg/mL | MBC (MDRAB strain MO91): 32 µg/mL

Sequence: GLFGKLIKKFGRKAISYAVKKARGKH [Latarcin 2a]
MBC [1, 24]: 16 µg/mL | MIC ([1]; broth microdilution (CLSI, modified), LB medium, 5 × 10^5 CFU/mL, 24 h at 37 °C, lowest concentration with no visible growth, triplicate): 16 µg/mL | MBC [2, 24]: 16 µg/mL | MIC ([2]; broth microdilution (CLSI, modified), LB medium, 5 × 10^5 CFU/mL, 24 h at 37 °C, triplicate): 16 µg/mL | MIC ([3]; strain J49, broth microdilution, LB, 24 h 37 °C): 64 µg/mL | MBC ([3]; strain J49, subculture on LB agar, 24 h 37 °C): 64 µg/mL | MIC (MDRAB clinical strain K2; strain K2, broth microdilution, LB, 24 h 37 °C): 64 µg/mL | MBC (MDRAB clinical strain K2; strain K2, subculture on LB agar, 24 h 37 °C): 64 µg/mL | MIC ([4]; strain Y92, broth microdilution, LB, 24 h 37 °C): 8 µg/mL | MBC ([4]; strain Y92, subculture on LB agar, 24 h 37 °C): 8 µg/mL | MIC ([5]; strain W11, broth microdilution, LB, 24 h 37 °C): 8 µg/mL | MBC ([5]; strain W11, subculture on LB agar, 24 h 37 °C): 8 µg/mL | MIC ([6]; strain U80, broth microdilution, LB, 24 h 37 °C): 16 µg/mL | MBC ([6]; strain U80, subculture on LB agar, 24 h 37 °C): 16 µg/mL | MIC ([7]; strain U95, broth microdilution, LB, 24 h 37 °C): 16 µg/mL | MBC ([7]; strain U95, subculture on LB agar, 24 h 37 °C): 16 µg/mL | MIC ([8]; strain O59, broth microdilution, LB, 24 h 37 °C): 16 µg/mL | MBC ([8]; strain O59, subculture on LB agar, 24 h 37 °C): 16 µg/mL | MIC ([9]; strain D29, broth microdilution, LB, 24 h 37 °C): 8 µg/mL | MBC ([9]; strain D29, subculture on LB agar, 24 h 37 °C): 16 µg/mL | MIC ([10]; strain L87, broth microdilution, LB, 24 h 37 °C): 16 µg/mL | MBC ([10]; strain L87, subculture on LB agar, 24 h 37 °C): 16 µg/mL | MIC ([11]; strain AO80, broth microdilution, LB, 24 h 37 °C): 8 µg/mL | MBC ([11]; strain AO80, subculture on LB agar, 24 h 37 °C): 8 µg/mL | MIC ([12]; strain AS40, broth microdilution, LB, 24 h 37 °C): 8 µg/mL | MBC ([12]; strain AS40, subculture on LB agar, 24 h 37 °C): 8 µg/mL | MIC ([13]; strain AK29, broth microdilution, LB, 24 h 37 °C): 8 µg/mL | MBC ([13]; strain AK29, subculture on LB agar, 24 h 37 °C): 8 µg/mL | MIC ([14]; strain AK61, broth microdilution, LB, 24 h 37 °C): 8 µg/mL | MBC ([14]; strain AK61, subculture on LB agar, 24 h 37 °C): 8 µg/mL | MIC ([15]; strain AE5, broth microdilution, LB, 24 h 37 °C): 8 µg/mL | MBC ([15]; strain AE5, subculture on LB agar, 24 h 37 °C): 8 µg/mL | MIC ([16]; strain AE6, broth microdilution, LB, 24 h 37 °C): 8 µg/mL | MBC ([16]; strain AE6, subculture on LB agar, 24 h 37 °C): 8 µg/mL | MIC ([17]; strain AF11, broth microdilution, LB, 24 h 37 °C): 8 µg/mL | MBC ([17]; strain AF11, subculture on LB agar, 24 h 37 °C): 8 µg/mL | MIC ([18]; strain AF12, broth microdilution, LB, 24 h 37 °C): 8 µg/mL | MBC ([18]; strain AF12, subculture on LB agar, 24 h 37 °C): 8 µg/mL | MIC ([19]; strain AF93, broth microdilution, LB, 24 h 37 °C): 8 µg/mL | MBC ([19]; strain AF93, subculture on LB agar, 24 h 37 °C): 8 µg/mL | MIC ([20]; strain AG51, broth microdilution, LB, 24 h 37 °C): 4 µg/mL | MBC ([20]; strain AG51, subculture on LB agar, 24 h 37 °C): 4 µg/mL | MIC ([21]; strain AN10, broth microdilution, LB, 24 h 37 °C): 4 µg/mL | MBC ([21]; strain AN10, subculture on LB agar, 24 h 37 °C): 4 µg/mL | MIC ([22]; strain AL87, broth microdilution, LB, 24 h 37 °C): 4 µg/mL | MBC ([22]; strain AL87, subculture on LB agar, 24 h 37 °C): 4 µg/mL | MIC ([23]; strain AZ93, broth microdilution, LB, 24 h 37 °C): 8 µg/mL | MBC ([23]; strain AZ93, subculture on LB agar, 24 h 37 °C): 8 µg/mL
